How the values were obtained:
[1] = biological target: T1, XIAP BIR-3 (Homo sapiens, UniProt P98170); assay: Fluorescence polarization binding affinity to XIAP BIR-3 (competition with AbuRPF-K(5-Fam)-NH2); conditions: 5 nM labeled peptide, 40 nM BIR3, 15 min at RT, pH 7.5; reported as ranges
T1 construct: 40 nM of the respective IAP BIR3
Procedure: (§1) The binding affinities of the compounds are reported as a KD value (μM). Briefly, various concentrations of test peptides were mixed with 5 nM of the fluorescently labeled peptide (i.e., a mutated N-terminal Smac peptide—AbuRPF-K(5-Fam)-NH2) and 40 nM of the respective IAP BIR3 for 15 min at RT in […] of 0.1M Potassium Phosphate buffer, pH 7.5 containing […] bovine g-globulin. Following incubation, the polarization values (mP) were measured on a Victor2V (available from PerkinElmer Life Sciences) using a 485 nm excitation filter and a 520 nm emission filter. The reported KD values are supplied as ranges (A=<0.1 μM, B=0.1 μM to 1 μM, C>1 μM to 10 μM, D=>10 μM).

[2] = test system: SK-OV-3 cells; assay: Growth inhibition of ovarian cancer cell line SK-OV-3 (MTT assay, cell survival); type: cell-based; conditions: Homo sapiens, drug concentration that results in 50% cell survival, 72 hrs incubation, reported as ranges
Procedure: Compounds of the invention also were tested for their ability to inhibit the growth of an ovarian cancer cell line, SK-OV-3. A known assay previously used for measuring cell growth (as described in Hansen, M. B., Nielsen, S. E., and Berg, K. (1989) J. Immunol. Methods 119, 203-210 and incorporated herein by reference in its entirety) was used. Briefly, SK-OV-3 cells are seeded in 96-well plates in McCoy's medium containing 10% fetal bovine serum albumin (5,000 per well) and incubated overnight at 37° C. The next day, test compounds are added at various concentrations (0.003-10 μM) and the plates are incubated at 37° C. for an additional 72 hrs. This incubation time was considered to be optimal for measuring inhibitory effects of the different compounds tested. 50 microliters of 5 mg/mL MTT reagent is added to each well and the plates are incubated at 37° C. for another three (3) hours. At the end of the three (3) hour incubation period, 50 microliters of DMSO is added to each well to dissolve cells and the optical density (OD) of the wells is measured with a microplate reader (Victor^2 1420, Wallac, Finland) at 535 nm. Cell survival (CS) was calculated using the following equation: CS=(OD treated well/mean OD control wells)×100%.
The CC50 (reported in the following tables), is defined as the drug concentration that results in 50% cell survival (CS), and is derived by calculating the point where the dose-response curve crosses the 50% CS point using GraphPad Prism. The reported CC50 values are supplied as ranges (A=<0.1 μM, B=0.1 μM to 1 μM, C=>1 μM to 10 μM, D=>10 μM).

[3] = biological target: cIAP-1 BIR-3 (Homo sapiens, UniProt Q13490); assay: Fluorescence polarization binding affinity to cIAP-1 BIR-3 (competition with AbuRPF-K(5-Fam)-NH2); conditions: 5 nM labeled peptide, 40 nM BIR3, 15 min at RT, pH 7.5; reported as ranges; read-out: KD (c-IAP-1 BIR3)
cIAP-1 BIR-3, sequence (Q13490 266-352 limits assumed): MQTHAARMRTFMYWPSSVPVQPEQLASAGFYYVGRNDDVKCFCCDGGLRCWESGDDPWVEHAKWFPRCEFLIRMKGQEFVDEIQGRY
Procedure: as §1

T1 sequence (P98170 241-356 limits assumed): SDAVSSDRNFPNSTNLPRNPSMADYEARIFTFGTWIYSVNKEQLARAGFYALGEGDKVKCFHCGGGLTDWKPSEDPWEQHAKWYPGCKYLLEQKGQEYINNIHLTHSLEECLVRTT

Structure (SMILES)	Kd [1]	Kd [3]	CC50 [2]
CN[C@@H](C)C(=O)N[C@@H](CO)C(=O)N1CC[C@@H]2[C@H]1[C@@H](c1c[nH]c3cc(F)ccc13)CN2C1CCCC1 [Example 11]	100 to 1000 nM	< 100 nM	> 10000 nM
CNC(C)C(=O)NC(C(=O)N1CCC2C1CCN2C(=O)C(NC(=O)C(C)NC)C1CCCCC1)C1CCCCC1 (stereo not drawn) [Example 110, N-(1-Cyclohexyl-2-{4-[2-cyclohexyl-2-(2-methylamino-propionylamino)-acetyl]-hexahydro-pyrrolo[3,2-b]pyrrol-1-yl}-2-oxo-ethyl)-2-methylamino-propionamide]	1000 to 10000 nM	< 100 nM	1000 to 10000 nM
CN[C@@H](C)C(=O)N[C@H](C(=O)N1C[C@@H](O)[C@H]2NC[C@H](c3c[nH]c4cc(F)ccc34)[C@H]21)C1CCCCC1 [Example 85]	100 to 1000 nM	< 100 nM	100 to 1000 nM
CN[C@@H](C)C(=O)N[C@H](C(=O)N1CC[C@@H]2[C@H]1[C@@H](c1c[nH]c3cc(F)ccc13)CN2C1CCCC1)C1CCCCC1 [Example 9, N-{1-Cyclohexyl-2-[4-cyclopentyl-6-(6-fluoro-1H-indol-3-yl)-hexahydro-pyrrolo[3,2-b]pyrrol-1-yl]-2-oxo-ethyl}-2-methylamino-propionamide]	100 to 1000 nM	< 100 nM	< 100 nM
CCN1C[C@H](c2c[nH]c3cc(F)ccc23)[C@@H]2[C@H]1CCN2C(=O)[C@@H](NC(=O)[C@H](C)NC)C1CCCCC1 [Example 18, N-{1-Cyclohexyl-2-[4-ethyl-6-(6-fluoro-1H-indol-3-yl)-hexahydro-pyrrolo[3,2-b]pyrrol-1-yl]-2-oxo-ethyl}-2-methylamino-propionamide]	100 to 1000 nM	< 100 nM	100 to 1000 nM
CN[C@@H](C)C(=O)N[C@H](C(=O)N1CC[C@@H]2[C@H]1[C@H](c1c[nH]c3cc(F)ccc13)CN2S(C)(=O)=O)C(C)(C)C [Example 49, N-{1-[6-(6-Fluoro-1H-indol-3-yl)-4-methanesulfonyl-hexahydro-pyrrolo[3,2-b]pyrrole-1-carbonyl]-2,2-dimethyl-propyl}-2-methylamino-propionamide]	1000 to 10000 nM	100 to 1000 nM	> 10000 nM
CN[C@@H](C)C(=O)N[C@H](C(=O)N1CC[C@H]2NC[C@H](c3cn(Cc4ccccc4)c4cc(F)ccc34)[C@H]21)C1CCCCC1 [Example 91]	< 100 nM	< 100 nM	100 to 1000 nM
CC[C@H](NC(=O)[C@H](C)NC)C(=O)N1CC[C@@H]2[C@H]1[C@@H](c1c[nH]c3cc(F)ccc13)CN2C1CCCC1 [Example 6]	100 to 1000 nM	100 to 1000 nM	100 to 1000 nM
CN[C@@H](C)C(=O)N[C@H](C(=O)N1CC[C@@H]2[C@H]1[C@@H](c1c[nH]c3ccc(F)cc13)CN2C(C)=O)C(C)(C)C [Example 69, N-{1-[4-Acetyl-6-(5-fluoro-1H-indol-3-yl)-hexahydro-pyrrolo[3,2-b]pyrrole-1-carbonyl]-2,2-dimethyl-propyl}-2-methylamino-propionamide]	< 100 nM	< 100 nM	< 100 nM
CN[C@@H](C)C(=O)N[C@H](C(=O)N1CC[C@@H]2[C@H]1[C@@H](c1c[nH]c3ccccc13)CN2C1CCCCC1)[C@@H](C)OC [Example 97]	1000 to 10000 nM	100 to 1000 nM	100 to 1000 nM
C[C@H](N)C(=O)N[C@H](C(=O)N1CC[C@H]2NC[C@H](c3c[nH]c4cc(F)ccc34)[C@H]21)C1CCCCC1 [Example 88]	< 100 nM	< 100 nM	> 10000 nM
CN[C@@H](C)C(=O)N[C@H](C(=O)N1CC[C@@H]2[C@H]1[C@@H](c1c[nH]c3cc(F)ccc13)CN2C(=O)OCc1ccccc1)C1CCCCC1 [Example 99]	< 100 nM	< 100 nM	< 100 nM
CN[C@@H](C)C(=O)N[C@@H](COC)C(=O)N1CC[C@@H]2[C@H]1[C@H](c1c[nH]c3cc(F)ccc13)CN2C1CCCC1 [Example 12, N-{2-[4-Cyclopentyl-6-(6-fluoro-1H-indol-3-yl)-hexahydro-pyrrolo[3,2-b]pyrrol-1-yl]-1-methoxymethyl-2-oxo-ethyl}-2-methylamino-propionamide]	1000 to 10000 nM	< 100 nM	> 10000 nM
CN[C@@H](C)C(=O)N[C@H](C(=O)N1CC[C@H]2NC[C@H](c3c[nH]c4ccccc34)[C@H]21)C1CCCCC1 [Example 2, N-{1S-Cyclohexyl-2-[(3aR,6aR)-6S-(1H-indol-3-yl)-hexahydro-pyrrolo[3,2-b]pyrrol-1-yl]-2-oxo-ethyl}-2S-methylamino-propionamide]	< 100 nM	< 100 nM	100 to 1000 nM
CN[C@@H](C)C(=O)N[C@H](C(=O)N1CC[C@H]2NC[C@H](c3c[nH]c4cc(F)ccc34)[C@H]21)[C@@H](C)O [Example 28, N-{1-[6-(6-Fluoro-1H-indol-3-yl)-hexahydro-pyrrolo[3,2-b]pyrrole-1-carbonyl]-2-hydroxy-propyl}-2-methylamino-propionamide]	100 to 1000 nM	< 100 nM	1000 to 10000 nM

Second part, led by results:

Kd [1]	Kd [3]	Structure (SMILES)	CC50 [2]
< 100 nM	< 100 nM	CN[C@@H](C)C(=O)N[C@H](C(=O)N1CC[C@H]2NC[C@H](c3c[nH]c4cc(F)ccc34)[C@H]21)[C@@H](C)OC [Example 35, N-{1-[6-(6-Fluoro-1H-indol-3-yl)-hexahydro-pyrrolo[3,2-b]pyrrole-1-carbonyl]-2-methoxy-propyl}-2-methylamino-propionamide]	< 100 nM
< 100 nM	< 100 nM	CN[C@@H](C)C(=O)N[C@H](C(=O)N1CC[C@@H]2[C@H]1[C@@H](c1c[nH]c3ccc(F)cc13)CN2C(C)=O)[C@@H](C)O [Example 74, N-{1-[4-Acetyl-6-(5-fluoro-1H-indol-3-yl)-hexahydro-pyrrolo[3,2-b]pyrrole-1-carbonyl]-2-hydroxy-propyl}-2-methylamino-propionamide]	100 to 1000 nM
< 100 nM	< 100 nM	CN[C@@H](C)C(=O)N[C@H](C(=O)N1CC[C@H]2NC[C@H](c3c[nH]c4cc(F)ccc34)[C@H]21)C1CCCCC1 [Example 32, N-{1-Cyclohexyl-2-[6-(6-fluoro-1H-indol-3-yl)-hexahydro-pyrrolo[3,2-b]pyrrol-1-yl]-2-oxo-ethyl}-2-methylamino-propionamide]	< 100 nM
< 100 nM	< 100 nM	CN[C@@H](C)C(=O)N[C@H](C(=O)N1CC[C@@H]2[C@H]1[C@@H](c1c[nH]c3cc(F)ccc13)CN2C(C)=O)C1CCCCC1 [Example 59, N-{2-[4-Acetyl-6-(6-fluoro-1H-indol-3-yl)-hexahydro-pyrrolo[3,2-b]pyrrol-1-yl]-1-cyclohexyl-2-oxo-ethyl}-2-methylamino-propionamide]	< 100 nM
< 100 nM	< 100 nM	CN[C@@H](C)C(=O)N[C@H](C(=O)N1CC[C@H]2NC[C@H](c3c[nH]c4cc(F)ccc34)[C@H]21)C(C)C [Example 30, N-{1-[6-(6-Fluoro-1H-indol-3-yl)-hexahydro-pyrrolo[3,2-b]pyrrole-1-carbonyl]-2-methyl-propyl}-2-methylamino-propionamide]	< 100 nM
< 100 nM	< 100 nM	CN[C@@H](C)C(=O)N[C@@H](CO)C(=O)N1CC[C@@H]2[C@H]1[C@@H](c1c[nH]c3cc(F)ccc13)CN2C(C)=O [Example 63, N-{2-[4-Acetyl-6-(6-fluoro-1H-indol-3-yl)-hexahydro-pyrrolo[3,2-b]pyrrol-1-yl]-1-hydroxymethyl-2-oxo-ethyl}-2-methylamino-propionamide]	1000 to 10000 nM
< 100 nM	< 100 nM	CCOC(=O)CN1C[C@H](c2c[nH]c3cc(F)ccc23)[C@@H]2[C@H]1CCN2C(=O)[C@@H](NC(=O)[C@H](C)NC)C1CCCCC1 [Example 41, [4-[2-Cyclohexyl-2-(2-methylamino-propionylamino)-acetyl]-3-(6-fluoro-1H-indol-3-yl)-hexahydro-pyrrolo[3,2-b]pyrrol-1-yl]-acetic acid ethyl ester]	100 to 1000 nM

Source: patent US8399683B2 (TetraLogic Pharmaceuticals, priority 2008, dated 2013)
